Measured values published in patent EP4692072A1, “PHOTOCHROMIC COMPOUND, PROPARGYL ALCOHOL COMPOUND, CURABLE COMPOSITION, OPTICAL ARTICLE, LENS, AND SPECTACLES” (TOKUYAMA CORPORATION, priority 2023, dated 2024).

What was measured:
[1] = Photochromic properties of binder sheet (photochromic layer prepared by binder method); assay type: physicochemical; conditions: 0.25 mmol per 100 parts by mass resin; for A23: 23°C color optical density ε(300)-ε(0); for Maximum absorption wavelength: urethaneurea resin binder sheet, after color development
Experimental: (§1) • [1] Maximum Absorption Wavelength (λmax): The maximum absorption wavelength after color development, measured using a spectrophotometer (instantaneous multichannel photodetector MCPD3000) manufactured by Otsuka Electronics Co., Ltd. was used as an indicator for the color tone during the color development. • [2] 23°C Color Optical Density (A23): A difference between an absorbancy measured after light irradiation at 23°C for 300 seconds {ε(300)} and an absorbancy without light irradiation ε(0) at the maximum absorption wavelength was used as an indicator for the color optical density. […] 23°C color fading half-life [τ1/2 (sec.)]: A time required for the absorbancy of the sample at the maximum absorption wavelength to decrease to 1/2 of {ε(300)-ε(0)} when the light irradiation was terminated after the light irradiation at 23°C for 300 seconds, was used as an indicator for the color fading speed. The shorter this time, the higher the color fading speed. • [4] Residual rate (A120/A0×100): The obtained photochromic plastic lens was subjected to accelerated deterioration using a xenon weather meter X25 manufactured by Suga Test Instruments Co., Ltd. for 120 hours. Subsequently, the color optical density was evaluated before and after the test, then a color optical density before the test (A0) and a color optical density after the test (A120) were measured, and a ratio (A120/A0) was defined as a residual rate. The residual rate was used as an indicator for a color developing durability. The higher the residual rate, the higher the color developing durability. The results of Examples 26, 50, and Comparative Examples 1 to 8 are summarized in Table 1, and the results of Examples 27 to 49 are summarized in Tables 2 and 3.
(§2) A binder sheet was prepared using the following method. The binder sheet consisted of a first optical sheet, a first adhesive layer, a photochromic layer, a second adhesive layer, and a second optical sheet, which are laminated in this order. The first optical sheet and the second optical sheet were made of a polycarbonate sheet with a thickness of 400 µm.
(§3) A 2L four-necked flask equipped with agitation blades, a cooling tube, a thermometer, and a nitrogen gas introducing tube was charged with 315 parts by mass of polycarbonate diol having a number-average molecular weight of 1000, 100 parts by mass of isophorone diisocyanate, and 72 parts by mass of toluene, and the mixture was reacted under nitrogen atmosphere at 100°C for 7 hours to synthesize a urethane prepolymer having an isocyanate group on its terminal. After completion of the urethane prepolymer reaction, the reaction liquid was cooled to approximately 0°C, then dissolved in 205 parts by mass of t-butyl alcohol and 382 parts by mass of diethyl ketone, and then the liquid temperature was maintained at 0°C. Subsequently, into this reaction liquid, a mixture of 21.3 parts by mass of bis-(4-aminocyclohexyl)methane as a chain extender and 20 parts by mass of diethyl ketone was dripped over within 30 minutes, and the mixture was reacted at 0°C for 1 hour. Then, into the mixture, 8.1 parts by mass of 1,2,2,6,6-pentamethyl-4-aminopiperidine was dripped, and the mixture was reacted at 0°C for 1 hour to obtain a diethyl ketone solution of a terminal non-reactive urethaneurea resin.
(§4) To 100 parts by mass of the obtained terminal non-reactive urethaneurea resin solution, the photochromic compound in Example 1 (represented by formula (28) above), 6.3 parts by mass of 4,4'-methylenebis(cyclohexyl isocyanate) isomer mixture (polyisocyanate compound), furthermore 0.4 part by mass of ethylene bis(oxyethylene)bis[3-(5-tert-butyl-4-hydroxy-m-tolyl)propionate] as an antioxidant, and 0.06 part by mass of DOW CORNING TORAY L-7001 as a surfactant were added, and the mixture was stirred and mixed at room temperature to obtain a photochromic layer forming composition. […]

[2] = Accelerated deterioration (xenon weather meter X25, 120 hours) of binder sheet prepared by binder method; assay type: physicochemical; conditions: 0.25 mmol per 100 parts by mass resin, A120/A0×100 after 120 hours xenon weather meter
Experimental: as §1, §2, §3, §4

| SMILES | A23 [1] | Maximum absorption wavelength [1] | Residual rate [2] | further results |
| --- | --- | --- | --- | --- |
| COc1ccc(C2(c3ccc(N(C)c4ccccc4)cc3)C=Cc3c4c(c5cc(-c6ccc(N7CCOCC7)cc6)c(OC)cc5c3O2)-c2ccccc2C4(C)C)cc1 (centres unmarked) [Example 1] | 0.97 - | 502 nm | 89% | A23 ([1]; listed as Formula (37)): 1.06 -; Maximum absorption wavelength ([1]; listed as Formula (37)): 603 nm; Residual rate ([2]; listed as Formula (37)): 90% |
| CCCCN(c1ccccc1)c1ccc(C2(c3ccc(C)cc3)C=Cc3c4c(c5cc(N6CCOCC6)c(OC)cc5c3O2)-c2ccccc2C4(CC)CC)cc1 (centres unmarked) [Example 10] | 1.35 - | 516 nm | 91% | A23 ([1]; listed as Formula (62)): 1.12 -; Maximum absorption wavelength ([1]; listed as Formula (62)): 594 nm |
| COCCCCC1(CCCCOC)c2cc(Sc3c(C)cccc3C)ccc2-c2c1c1c(c3cc(OC)ccc23)OC(c2ccc(OC)cc2)(c2ccc(N(C)c3ccc(OC)cc3)cc2)C=C1 (centres unmarked) [Example 11] | 0.51 - | 479 nm | 90% | A23 ([1]; listed as Formula (65)): 0.97 -; Maximum absorption wavelength ([1]; listed as Formula (65)): 612 nm; Residual rate ([2]; listed as Formula (65)): 89% |
| CCCC1(CCC)c2ccccc2-c2c1c1c(c3cc(OC)c(-c4ccc(OC)cc4OC)cc23)OC(c2ccc(C)cc2)(c2ccc(N(C)c3ccccc3)cc2)C=C1 (centres unmarked) [Example 19] | 0.88 - | 492 nm | 91% | A23 ([1]; listed as Formula (80)): 1.14 -; Maximum absorption wavelength ([1]; listed as Formula (80)): 604 nm |
| COCCC1(CCOC)c2ccccc2-c2c1c1c(c3cc(OC)c(-c4ccc(N(c5ccccc5)c5ccccc5)cc4)cc23)OC(c2ccc(Oc3ccccc3)cc2)(c2ccc(N(C)c3ccccc3)cc2)C=C1 (centres unmarked) [Example 23] | 1.02 - | 506 nm | 89% | A23 ([1]; listed as Formula (85)): 1.06 -; Maximum absorption wavelength ([1]; listed as Formula (85)): 609 nm |
| COc1ccc(N(C)c2ccc(C3(c4ccc(CCO[Si](C)(C)CC[Si](O[Si](C)(C)C)(O[Si](C)(C)C)O[Si](C)(C)C)cc4)C=Cc4c5c(c6cc(N(C)c7ccccc7)c(OC)cc6c4O3)-c3ccc(C(F)(F)F)cc3C53CCC(C)(C)CC3)cc2)cc1 (centres unmarked) [Example 60] | 0.84 - | 524 nm | 88% | A23 ([1]; listed as Formula (121)): 0.87 -; Maximum absorption wavelength ([1]; listed as Formula (121)): 582 nm; Residual rate ([2]; listed as Formula (121)): 89% |

More lines, main results first:

| A23 [1] | Maximum absorption wavelength [1] | Residual rate [2] | SMILES | further results |
| --- | --- | --- | --- | --- |
| 0.88 - | 505 nm | 87% | CCN(c1ccc(OC)cc1)c1ccc(C2(c3ccc(OC)cc3)C=Cc3c4c(c5cc(-c6ccc(N7CCOCC7)cc6)c(OC)cc5c3O2)-c2ccccc2C4(C)C)cc1 (centres unmarked) [Example 25] | A23 ([1]; listed as Formula (88)): 0.97 -; Maximum absorption wavelength ([1]; listed as Formula (88)): 606 nm |
| 0.75 - | 502 nm | 87% | CCCCOCCC1(CCOCCCC)c2ccccc2-c2c1c1c(c3cc(OC)c(NC(=O)c4ccccc4)cc23)OC(c2ccc(N(C)c3ccccc3)cc2)(c2ccc(OC)c(F)c2)C=C1 (centres unmarked) [Example 53] | A23 ([1]; listed as Formula (95)): 0.96 -; Maximum absorption wavelength ([1]; listed as Formula (95)): 607 nm; Residual rate ([2]; listed as Formula (95)): 89% |
| 0.85 - | 493 nm | 91% | CCCC1(CCC)c2cc(OC(F)(F)F)ccc2-c2c1c1c(c3cc(OC)c(Sc4c(C)cccc4C)cc23)OC(c2ccc(N(C)c3ccccc3)cc2)(c2ccc(OC)c(OC)c2)C=C1 (centres unmarked) [Example 57] | A23 ([1]; listed as Formula (110)): 0.87 -; Maximum absorption wavelength ([1]; listed as Formula (110)): 618 nm; Residual rate ([2]; listed as Formula (110)): 90% |
